Test system: PDECs
Assay: Cytokine profiling (ELISA) of PDEC growth media
Format: cell-based, human
Protocol: Media (1 ml) collected from NFC-grown PDECs or PBMCs at day 3 and day 7 timepoints was stored at −80° C. until the day of analysis. […] Cell and matrix debris were removed after thawing by centrifugation (10 min, 10 000 G, RT). Cytokines secreted to growth media were analyzed with R&D DuoSetELISA kits (IL2: DY202-05, IL-10: DY217B-05, TNF-α: DY210-05, IFN-γ: DY285B-05, IL-4: DY204-05, IL-6: DY206-05, IL-1β/IL1F2: DY201-05, LAP (TGF-β1): DY246-05) together with DuoSet Ancillary Reagent Kit 2 (DY008), according to manufacturer's protocol. Briefly, plates were coated with capture antibody overnight at RT, washed 3 times and blocked with 1% BSA in PBS for 1 hour. Samples diluted in growth media were added and incubated for 2 hours at RT. After 3 washes, detection antibody was added and incubated for 2 hours at RT. After washes, Streptavidin-HRP was added and incubated for 20 min at RT, protected from light. After washes, Substrate solution was added for 20 min, protected from light, after which the reaction was stopped with stop solution and absorbance was immediately determined using a microplate reader set to 450 nm, and 540 nm to subtract background (Omega Fluostar, BMG Labtech).

SMILES: O=C(O)CCCC[C@@H]1SC[C@@H]2NC(=O)N[C@@H]21 [biotin]
- amount of inflammatory cytokine IFN-γ (1 μM biotin added to PDEC growth media, NFC cultures): clearly decreased
- inflammatory cytokine secretion into the media (biotin added to growth media after functionalization of the matrix): clearly decreased

Source: US20230258624A1, “Ex vivo tumour immune microenvironment model, a method for preserving a tumour-specific immune cell profile in an ex vivo tumour immune microenvironment model and use of nanofibrillar cellulose” (UPM-Kymmene Corporation, priority 2022, published 2023)
